# From publication PMC11413503, “SCR‐7952, a highly selective MAT2A inhibitor, demonstrates synergistic antitumor activities in combination with the S‐adenosylmethionine‐competitive or the methylthioadenosine‐cooperative protein arginine methyltransferase 5 inhibitors in methylthioadenosine phosphorylase‐deleted tumors” (MedComm, 2024)
# What was measured:
# [1] = target: COX2 (Homo sapiens, UniProt P35354); assay: Mini-profiling panel, non-kinase enzyme; format: biochemical; conditions: Non-Kinase Enzymes; read-out: COX2 Inhibitor IC50
# [2] = target: NET (Homo sapiens, UniProt P23975); assay: Mini-profiling panel, transporter; format: cell-based
# Experimental: (§1) Further insight into selectivity was evaluated in a functional panel of 47 representative targets closely related to human life activities, including G protein‐coupled receptors, transporters, ion channels, kinases, nuclear hormone receptor targets, and nonkinase enzymes (Table S3).
# [3] = target: DAT (Homo sapiens, UniProt Q01959); assay: Mini-profiling panel, transporter; format: cell-based
# Experimental: as §1
# [4] = target: SERT (Homo sapiens, UniProt P31645); assay: Mini-profiling panel, transporter; format: cell-based
# Experimental: as §1
# [5] = target: ADRB2 (Homo sapiens, UniProt P07550); assay: Mini-profiling panel, GPCR; format: cell-based; conditions: GPCR Targets
# [6] = tested on: SDMA; assay: Tumor SDMA levels in combination xenograft study; format: in vivo, mice; conditions: SCR-7952 0.3 mg/kg alone
# [7] = target: PDE4D2 (Homo sapiens, UniProt Q08499); assay: Mini-profiling panel, non-kinase enzyme; format: biochemical; conditions: Non-Kinase Enzymes; read-out: PDE4D2 Inhibitor IC50
# [8] = target: CAV1.2 (Homo sapiens, UniProt Q13936); assay: cell-based
# [9] = target: ADRB1 (Homo sapiens, UniProt P08588); assay: Mini-profiling panel, GPCR; format: cell-based; conditions: GPCR Targets
# Sequence of ADRB1 (P08588 whole entry, species assumed): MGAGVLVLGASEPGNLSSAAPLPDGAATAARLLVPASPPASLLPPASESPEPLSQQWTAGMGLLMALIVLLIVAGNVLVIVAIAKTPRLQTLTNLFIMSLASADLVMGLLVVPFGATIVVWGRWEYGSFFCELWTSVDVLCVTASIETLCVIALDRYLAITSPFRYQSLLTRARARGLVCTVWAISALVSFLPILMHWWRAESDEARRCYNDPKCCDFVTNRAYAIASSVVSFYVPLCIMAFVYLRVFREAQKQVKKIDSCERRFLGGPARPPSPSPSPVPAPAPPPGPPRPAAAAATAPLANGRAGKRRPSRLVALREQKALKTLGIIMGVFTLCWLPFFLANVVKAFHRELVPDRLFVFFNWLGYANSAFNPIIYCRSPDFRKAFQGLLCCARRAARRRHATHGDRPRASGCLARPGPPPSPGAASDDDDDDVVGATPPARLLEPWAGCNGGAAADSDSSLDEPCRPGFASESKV
# [10] = tested on: HCT116 MTAP−/− cells; assay: Combination proliferation assay with PRMT5 inhibitors (Bliss model); format: cell-based; conditions: 8 days
# Experimental: Cells were plated in 96‐well cell culture plates and allowed to attach overnight at 37°C in 5% CO2. […] The final concentration of DMSO was 0.1% in media. Cell proliferation was measured using CellTiter‐Glo Cell Viability Assay (Promega). The IC50 values were calculated using the GraphPad Prism 9. Drug combination effects were analyzed using Combenefit software.[45]
# [11] = target: AChE (Homo sapiens, UniProt P22303); assay: Mini-profiling panel, non-kinase enzyme; format: biochemical; conditions: Non-Kinase Enzymes; read-out: AChE Inhibitor IC50
# [12] = tested on: SAM levels in HCT116 MTAP−/− xenograft tumors and mice plasma; assay: In vivo SAM measurement in tumors and plasma; conditions: 2 or 4 h post the final dose, low group, 16 days
# Experimental: The concentration of SAM in plasma and tissue samples was determined using a UPLC–MS/MS method. For plasma samples, an aliquot of 20 µL plasma sample was added with 400 µL extraction buffer (1 M acetic acid in MeOH), then vortexed and centrifuged at 16,000 g for 5 min. The supernatant was treated as the homogenized tissue sample, and the sample dilution factor was 21. For tumor samples, the tumor tissues were homogenized with 9 volumes (v/w) of extraction buffer, then vortexed and centrifuged at 16,000 g for 5 min. The supernatant was treated as the homogenized tissue sample. An aliquot of 30 µL tissue sample was added with 600 µL extraction buffer, then vortexed and centrifuged at 16,000 g for 5 min. The total sample dilution factor is 210. An aliquot of 60 µL diluted samples, standards, or QCs was added with 400 µL extraction buffer with IS (SAM‐d 3, 50 ng/mL in extraction buffer). The mixture was vortexed at 250 g for 10 min and centrifuged at 16,000 g for 5 min. An aliquot of 4 µL supernatant was injected for UPLC–MS/MS analysis. The standard calibration curve was in a 1.0–300 ng/mL concentration range. UPLC–MS/MS method for SAM detection was performed as mentioned before.
# [13] = Functional panel of 47 representative targets; conditions: at 10 µM
# [14] = target: CHRM2 (Homo sapiens, UniProt P08172); assay: Mini-profiling panel, GPCR; format: cell-based
# Sequence of CHRM2 (P08172 whole entry, species assumed): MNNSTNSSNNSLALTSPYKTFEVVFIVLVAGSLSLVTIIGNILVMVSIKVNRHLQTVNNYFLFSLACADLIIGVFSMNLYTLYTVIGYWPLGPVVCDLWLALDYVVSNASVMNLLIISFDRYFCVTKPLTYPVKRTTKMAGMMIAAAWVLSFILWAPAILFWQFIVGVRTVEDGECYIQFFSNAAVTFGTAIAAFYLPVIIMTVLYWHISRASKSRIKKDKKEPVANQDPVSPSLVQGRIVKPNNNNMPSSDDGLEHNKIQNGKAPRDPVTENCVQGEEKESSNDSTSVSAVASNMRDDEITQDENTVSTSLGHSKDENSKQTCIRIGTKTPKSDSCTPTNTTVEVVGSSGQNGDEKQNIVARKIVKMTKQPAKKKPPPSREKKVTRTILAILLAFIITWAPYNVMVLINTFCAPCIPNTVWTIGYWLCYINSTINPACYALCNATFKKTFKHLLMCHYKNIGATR
# Experimental: as §1
# [15] = target: HTR1A (Homo sapiens, UniProt P08908); assay: Mini-profiling panel, GPCR; format: cell-based
# Sequence of HTR1A (P08908 whole entry, species assumed): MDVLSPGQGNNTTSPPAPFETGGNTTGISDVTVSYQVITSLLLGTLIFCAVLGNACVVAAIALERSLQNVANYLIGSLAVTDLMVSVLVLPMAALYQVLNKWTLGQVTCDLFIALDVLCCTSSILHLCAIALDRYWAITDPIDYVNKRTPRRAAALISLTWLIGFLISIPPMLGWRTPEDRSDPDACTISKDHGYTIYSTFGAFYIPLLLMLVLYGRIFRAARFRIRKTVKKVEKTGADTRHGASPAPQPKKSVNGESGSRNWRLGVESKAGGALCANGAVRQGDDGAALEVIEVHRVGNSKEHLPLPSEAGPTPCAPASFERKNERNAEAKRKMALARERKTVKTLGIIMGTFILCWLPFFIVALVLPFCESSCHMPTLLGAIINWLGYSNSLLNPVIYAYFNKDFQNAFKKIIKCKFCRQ
# Experimental: as §1
# [16] = target: CNR1 (Homo sapiens, UniProt P21554); assay: Mini-profiling panel, GPCR; format: cell-based
# Experimental: as §1
# [17] = target: OPRM1 (Homo sapiens, UniProt P35372); assay: Mini-profiling panel, GPCR; format: cell-based
# Sequence of OPRM1 (P35372 whole entry, species assumed): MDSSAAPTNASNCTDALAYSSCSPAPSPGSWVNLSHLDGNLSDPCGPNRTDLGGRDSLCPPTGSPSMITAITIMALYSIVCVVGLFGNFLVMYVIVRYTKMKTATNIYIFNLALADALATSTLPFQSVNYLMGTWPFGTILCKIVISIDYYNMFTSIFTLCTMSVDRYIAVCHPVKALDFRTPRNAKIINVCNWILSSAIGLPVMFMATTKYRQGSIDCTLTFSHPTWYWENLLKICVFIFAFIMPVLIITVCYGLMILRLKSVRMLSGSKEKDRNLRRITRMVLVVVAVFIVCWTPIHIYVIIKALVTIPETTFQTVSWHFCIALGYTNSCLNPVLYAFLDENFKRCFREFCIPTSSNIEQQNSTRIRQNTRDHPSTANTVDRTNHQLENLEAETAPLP
# Experimental: as §1
# [18] = target: HTR2B (Homo sapiens, UniProt P41595); assay: Mini-profiling panel, GPCR; format: cell-based
# Sequence of HTR2B (P41595 whole entry, species assumed): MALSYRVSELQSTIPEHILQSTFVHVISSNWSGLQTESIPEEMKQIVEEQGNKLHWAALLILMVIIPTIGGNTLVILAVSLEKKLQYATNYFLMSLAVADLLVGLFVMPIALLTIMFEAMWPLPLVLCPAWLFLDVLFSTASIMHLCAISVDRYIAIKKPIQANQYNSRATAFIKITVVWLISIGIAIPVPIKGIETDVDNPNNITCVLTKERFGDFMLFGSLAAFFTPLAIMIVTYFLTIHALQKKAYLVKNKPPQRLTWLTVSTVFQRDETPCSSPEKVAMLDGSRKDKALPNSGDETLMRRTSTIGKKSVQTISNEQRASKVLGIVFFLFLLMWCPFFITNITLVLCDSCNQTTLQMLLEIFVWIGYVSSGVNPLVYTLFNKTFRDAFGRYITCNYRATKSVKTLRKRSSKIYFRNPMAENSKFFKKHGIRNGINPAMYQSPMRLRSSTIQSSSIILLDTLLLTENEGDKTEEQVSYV
# Experimental: as §1
# [19] = target: OPRK1 (Homo sapiens, UniProt P41145); assay: Mini-profiling panel, GPCR; format: cell-based
# Sequence of OPRK1 (P41145 whole entry, species assumed): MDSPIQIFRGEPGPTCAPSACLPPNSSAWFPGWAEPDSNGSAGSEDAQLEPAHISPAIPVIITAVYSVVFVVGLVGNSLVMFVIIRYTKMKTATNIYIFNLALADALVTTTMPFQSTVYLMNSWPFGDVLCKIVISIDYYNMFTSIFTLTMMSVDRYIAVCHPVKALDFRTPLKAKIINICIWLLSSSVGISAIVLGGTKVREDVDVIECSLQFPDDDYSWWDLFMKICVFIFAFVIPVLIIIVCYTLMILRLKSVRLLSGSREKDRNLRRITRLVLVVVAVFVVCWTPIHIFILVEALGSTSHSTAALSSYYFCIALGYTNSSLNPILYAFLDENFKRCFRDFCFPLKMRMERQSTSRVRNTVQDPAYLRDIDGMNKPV
# Experimental: as §1
# [20] = target: ADRA2A (Homo sapiens, UniProt P08913); assay: Mini-profiling panel, GPCR; format: cell-based
# Experimental: as §1
# [21] = target: CHRM1 (Homo sapiens, UniProt P11229); assay: Mini-profiling panel, GPCR; format: cell-based
# Experimental: as §1
# [22] = target: DRD2S (Homo sapiens, UniProt P14416); assay: Mini-profiling panel, GPCR; format: cell-based
# Sequence of DRD2S (P14416 1-414 isoform P14416-2): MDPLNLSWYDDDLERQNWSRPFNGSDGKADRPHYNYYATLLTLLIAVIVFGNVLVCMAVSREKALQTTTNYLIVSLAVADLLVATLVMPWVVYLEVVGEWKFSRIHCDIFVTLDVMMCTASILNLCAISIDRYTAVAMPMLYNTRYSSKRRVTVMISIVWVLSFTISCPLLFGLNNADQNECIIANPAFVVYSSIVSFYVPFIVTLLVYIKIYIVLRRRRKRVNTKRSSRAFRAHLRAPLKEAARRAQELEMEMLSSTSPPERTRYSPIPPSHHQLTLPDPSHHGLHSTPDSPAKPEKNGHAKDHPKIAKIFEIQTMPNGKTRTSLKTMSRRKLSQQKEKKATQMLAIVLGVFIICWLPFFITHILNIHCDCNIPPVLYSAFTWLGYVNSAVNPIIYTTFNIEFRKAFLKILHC
# Experimental: as §1
# [23] = target: DRD1 (Homo sapiens, UniProt P21728); assay: Mini-profiling panel, GPCR; format: cell-based
# Sequence of DRD1 (P21728 whole entry, species assumed): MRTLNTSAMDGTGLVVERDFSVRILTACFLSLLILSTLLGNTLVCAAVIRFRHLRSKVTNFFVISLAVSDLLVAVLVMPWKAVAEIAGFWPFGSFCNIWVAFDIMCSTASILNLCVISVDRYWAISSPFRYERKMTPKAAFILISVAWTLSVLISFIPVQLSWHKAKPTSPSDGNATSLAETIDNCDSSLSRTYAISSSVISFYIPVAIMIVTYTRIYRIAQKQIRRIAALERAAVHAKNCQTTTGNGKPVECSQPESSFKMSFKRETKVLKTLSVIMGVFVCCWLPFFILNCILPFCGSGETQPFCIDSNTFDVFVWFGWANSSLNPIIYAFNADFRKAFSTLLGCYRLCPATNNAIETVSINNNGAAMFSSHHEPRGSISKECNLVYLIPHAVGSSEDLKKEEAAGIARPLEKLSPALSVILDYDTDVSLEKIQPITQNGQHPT
# Experimental: as §1
# [24] = target: CNR2 (Homo sapiens, UniProt P34972); assay: Mini-profiling panel, GPCR; format: cell-based
# Sequence of CNR2 (P34972 whole entry, species assumed): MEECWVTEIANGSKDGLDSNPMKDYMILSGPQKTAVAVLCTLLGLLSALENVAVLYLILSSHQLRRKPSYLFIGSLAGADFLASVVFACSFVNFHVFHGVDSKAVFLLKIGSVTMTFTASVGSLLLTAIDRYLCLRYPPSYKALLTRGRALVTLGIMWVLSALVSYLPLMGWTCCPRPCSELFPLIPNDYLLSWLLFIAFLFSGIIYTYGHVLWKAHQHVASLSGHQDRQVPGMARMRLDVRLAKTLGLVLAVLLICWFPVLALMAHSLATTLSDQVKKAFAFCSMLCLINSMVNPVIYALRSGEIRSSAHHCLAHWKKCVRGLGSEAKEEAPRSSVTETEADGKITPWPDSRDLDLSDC
# Experimental: as §1
# [25] = target: HTR2A (Homo sapiens, UniProt P28223); assay: Mini-profiling panel, GPCR; format: cell-based
# Sequence of HTR2A (P28223 whole entry): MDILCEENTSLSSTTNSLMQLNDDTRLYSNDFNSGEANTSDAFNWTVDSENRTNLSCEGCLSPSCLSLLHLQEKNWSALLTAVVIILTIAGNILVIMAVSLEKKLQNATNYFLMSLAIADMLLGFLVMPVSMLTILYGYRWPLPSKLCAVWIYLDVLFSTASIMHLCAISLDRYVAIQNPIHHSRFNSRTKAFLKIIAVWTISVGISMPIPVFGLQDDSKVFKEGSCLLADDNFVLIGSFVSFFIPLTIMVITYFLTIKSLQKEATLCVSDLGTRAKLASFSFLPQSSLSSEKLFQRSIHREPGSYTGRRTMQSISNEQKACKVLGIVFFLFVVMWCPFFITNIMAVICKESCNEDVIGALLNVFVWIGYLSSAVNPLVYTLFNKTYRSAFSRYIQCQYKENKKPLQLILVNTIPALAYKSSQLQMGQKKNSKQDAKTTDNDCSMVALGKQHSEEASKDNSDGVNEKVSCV
# Experimental: as §1
# [26] = target: OPRD1 (Homo sapiens, UniProt P41143); assay: Mini-profiling panel, GPCR; format: cell-based
# Sequence of OPRD1 (P41143 whole entry, species assumed): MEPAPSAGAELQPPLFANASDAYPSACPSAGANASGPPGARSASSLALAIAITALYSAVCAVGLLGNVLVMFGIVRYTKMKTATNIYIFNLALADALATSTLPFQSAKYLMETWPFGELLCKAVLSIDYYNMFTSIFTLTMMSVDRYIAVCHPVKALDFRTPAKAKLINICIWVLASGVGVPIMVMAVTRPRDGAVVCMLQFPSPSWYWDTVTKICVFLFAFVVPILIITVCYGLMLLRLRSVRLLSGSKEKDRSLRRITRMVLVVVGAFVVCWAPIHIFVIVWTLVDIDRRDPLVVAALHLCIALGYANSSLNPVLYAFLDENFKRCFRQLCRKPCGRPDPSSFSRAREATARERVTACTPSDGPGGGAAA
# Experimental: as §1
# [27] = target: CHRM3 (Homo sapiens, UniProt P20309); assay: Mini-profiling panel, GPCR; format: cell-based
# Experimental: as §1
compound,measurement,setting,value
"Cn1cnc2c(=O)n(-c3cccnc3C3CC3)c3cc(Cl)ccc3c21 [SCR‐7952, 7‐chloro‐5‐(2‐cyclopropylpyridin‐3‐yl)‐1‐methyl‐1,5‐dihydro‐4H‐imidazo[4,5‐c]quinolin‐4‐one]",IC50,[1],> 10 µM
same,IC50,[2],> 10 µM
same,IC50,[3],> 10 µM
same,IC50,[4],> 10 µM
same,EC50,[5]; read-out: ADRB2 Agonism EC50,> 10 µM
same,IC50,[5]; read-out: ADRB2 Antagonism IC50,> 10 µM
same,tumor SDMA levels,[6],remarkable reduction
same,IC50,[7],> 10 µM
same,IC50,[8],> 10 µM
same,EC50,[9]; read-out: ADRB1 Agonism EC50,> 10 µM
same,IC50,[9]; read-out: ADRB1 Antagonism IC50,> 10 µM
same,interaction on cell growth in combination with JNJ-64619178,[10],synergistic interactions
same,interaction on cell growth in combination with MRTX-1719,[10],synergistic interactions
same,synergistic effect in combination with GSK3326595,[10],much weaker
same,IC50,[11],> 10 µM
same,inhibition of SAM levels in tumors and plasma,[12],53.56–68.72%
same,agonistic or antagonistic activities on 47 targets,[13],did not exhibit significant pharmacological effects
same,EC50,[14],> 10 µM
same,IC50,[14],> 10 µM
same,EC50,[15],> 10 µM
same,IC50,[15],> 10 µM
same,EC50,[16],> 10 µM
same,IC50,[16],> 10 µM
same,EC50,[17],> 10 µM
same,IC50,[17],> 10 µM
same,EC50,[18],> 10 µM
same,IC50,[18],> 10 µM
same,EC50,[19],> 10 µM
same,IC50,[19],> 10 µM
same,EC50,[20],> 10 µM
same,IC50,[20],> 10 µM
same,EC50,[21],> 10 µM
same,IC50,[21],> 10 µM
same,EC50,[22],> 10 µM
same,IC50,[22],> 10 µM
same,EC50,[23],> 10 µM
same,IC50,[23],> 10 µM
same,EC50,[24],> 10 µM
same,IC50,[24],> 10 µM
same,EC50,[25],> 10 µM
same,IC50,[25],> 10 µM
same,EC50,[26],> 10 µM
same,IC50,[26],> 10 µM
same,EC50,[27],> 10 µM
same,IC50,[27],> 10 µM
